Columns and labels:
Enterococcus faecalis = test: Phase 2 cSSSI study: cure rate by baseline pathogen; format: in vivo; conditions: Enterococcus faecalis at baseline
Protocol: (§1) The primary efficacy endpoint was the clinical response in the CE population at TOC, which occurred 20 to 28 days after study enrollment on Day 1. Clinical response was determined by the investigator as part of the end-of-therapy, TOC, and late follow-up procedures by assessing signs and symptoms including fever, pain, tenderness, erythema, induration, edema, purulent drainage, eschar, and devitalized tissue. A clinical response of cure, improvement, failure, or indeterminate was assigned at end-of-therapy and TOC by the investigator based on clinical signs and symptoms. At late follow-up, the investigator could assign the clinical response of relapse in addition to cure, improvement, or indeterminate. Only patients with a clinical response of cure or improvement at TOC were assessed for clinical response at late follow-up.
(§2) Cure was defined as resolution of purulent drainage, pain, edema, fever, erythema, tenderness, and induration. Serous drainage or aspirate and/or granulation tissue could be present. Improvement was defined as resolution of purulent drainage and, in the case of cellulitis, cessation of fever and pain. Residual erythema, edema, pain (in the case of wound or abscess), tenderness, and/or induration could be present as could serous drainage, granulation tissue, eschar, and/or devitalized tissue. Failure included any of the following: presence of purulent drainage (or aspirate) and/or fever; the unanticipated need for abscess drainage or removal of sutures (for treatment of infection)>48 hours after initiation of study therapy; or treatment with nonstudy systemic antibiotic having activity against gram-positive pathogen(s) for the primary infection site or use of topical antibiotics at the site of primary infection 24 hours or more after initiation of study medication therapy.
(§3) Blood and infection site cultures were obtained within three days of enrollment (often done at the time of enrollment). End-of-therapy, TOC, and late follow-up (or at early relapse) cultures were obtained from the infection site if clinically indicated. […] Specimens were cultured and pathogens were identified at each investigative site's certified laboratory. All isolated gram-positive pathogen(s) that were obtained from the infection site at baseline/randomization and up to and including the TOC time point were subcultured and sent to a central laboratory (Covance Clinical Laboratories, Indianapolis, Ind.) for confirmatory identification and susceptibility testing. In cases of discrepancy between the local and the central laboratory, central laboratory results were used.

Staphylococcus aureus = test: as above; format: in vivo; conditions: S. aureus at baseline, TOC
Protocol: as §1, §2, §3

Streptococcus agalactiae = test: as above; format: in vivo; conditions: Streptococcus agalactiae at baseline
Protocol: as §1, §2, §3

Streptococcus pyogenes = test: as above; format: in vivo; conditions: Streptococcus pyogenes at baseline
Protocol: as §1, §2, §3

MSSA or MRSA strains = test: Neutropenic-mouse thigh infection model, MSSA or MRSA strains, 72 h post-infection; format: in vivo, Staphylococcus aureus; conditions: independently of their MIC
Protocol: Methods: Thigh infection was established for 14 clinical SA isolates (3 MSSA and 11 MRSA; MICs 0.0015 to 2 μg/mL) in neutropenic CD-1 mice (n=3/group) with 5×10^5 colony forming units (CFU) of cells. Single intravenous doses of ORI (0.5 to 40 mg/kg) were tested against one MSSA and one MRSA strain. […] Both thighs were harvested and CFU counts were evaluated after 24 h (single doses) or 72 h (HEQ doses) treatment.
In vivo studies: All studies were performed in accordance with protocols that were approved by the Institutional Animal Care and Use Committee. Thigh infection was established for 14 clinical S. aureus isolates in neutropenic CD-1 mice (19-21 g, n=3/group) with 5×10^5 colony forming units (CFU) of cells in both thighs. In the single dose-response study, the number of bacteria/thigh was monitored 24 h post-infection (PI). In the human equivalent (HEQ) dose-ranging study, the bacterial titer was determined in mouse thighs at 2, 4, 8, 12, 24, 48 and 72 h PI. Thighs were serially diluted and plated on Baird-Parker agar plates to determine the bacterial titer. The limit of detection was 1.69 Log10 CFU/thigh. Bacterial titer decreases were calculated (compared to starting inoculum) in thighs at 72 h PI for each HEQ dose regimen of ORI.
Antibiotherapy: 1) In the single dose response study, mice were treated intravenously (IV) with ORI at doses ranging from 0.4 to 40 mg/kg at lh PI. […]

[1] = tested on: S. aureus (MSSA, MRSA, and VRSA); conditions: within 15 minutes to 2 hours against MSSA, McKay et al. 2009; cited from earlier work

Compound: CN[C@H](CC(C)C)C(=O)N[C@H]1C(=O)N[C@@H](CC(N)=O)C(=O)N[C@H]2C(=O)N[C@H]3C(=O)N[C@H](C(=O)N[C@H](C(=O)O)c4cc(O)cc(O)c4-c4cc3ccc4O)[C@H](O[C@H]3C[C@](C)(N)[C@@H](O)[C@H](C)O3)c3ccc(c(Cl)c3)Oc3cc2cc(c3O[C@@H]2O[C@H](CO)[C@@H](O)[C@H](O)[C@H]2O[C@H]2C[C@](C)(NCc3ccc(-c4ccc(Cl)cc4)cc3)[C@@H](O)[C@H](C)O2)Oc2ccc(cc2Cl)[C@H]1O [Oritavancin, N-(4-(4-chlorophenyl)benzyl)A82846B]
- % of patients cured (cure and improvement) (Enterococcus faecalis; 200 mg daily dose): 50.0%
- % of patients cured (cure and improvement) (Enterococcus faecalis; 800 mg infrequent dose): 100%
- % of patients cured (cure and improvement) (Enterococcus faecalis; 1200 mg single dose): 100%
- % of patients cured (cure and improvement) (Staphylococcus aureus; 200 mg daily dose): 67.4%
- % of patients cured (cure and improvement) (Staphylococcus aureus; 800 mg infrequent dose): 79.5%
- % of patients cured (cure and improvement) (Staphylococcus aureus; 1200 mg single dose): 78.9%
- % of patients cured (cure and improvement) (Streptococcus agalactiae; 200 mg daily dose): 33.3%
- % of patients cured (cure and improvement) (Streptococcus agalactiae; 800 mg infrequent dose): 100%
- % of patients cured (cure and improvement) (Streptococcus agalactiae; 1200 mg single dose): 100%
- % of patients cured (cure and improvement) (Streptococcus pyogenes; 200 mg daily dose): 66.7%
- % of patients cured (cure and improvement) (Streptococcus pyogenes; 800 mg infrequent dose): 100%
- % of patients cured (cure and improvement) (Streptococcus pyogenes; 1200 mg single dose): 100%
- Efficacy against MSSA or MRSA strains (MSSA or MRSA strains): active against all tested strains
- Bactericidal activity, log reduction [1]: ≥ 3 log

Source: US8420592B2, “Methods of treatment using single doses of oritavancin” (The Medicines Company, priority 2008, dated 2013)
